According to patent publication US8404718B2, “Combinations of pyrazole kinase inhibitors” (Astex Therapeutics Limited, priority 2005, dated 2013):

How the values were obtained:
[1] = test system: human colon carcinoma cell line HCT 116; experiment: Anti-proliferative activity, Alamar Blue assay; assay type: cell-based; conditions: 72 hours compound incubation, read-out: IC50, inhibition of cell growth, HCT 116
Method: The anti-proliferative activities of the combinations of the invention, as well as the individual components of the combinations, are determined by measuring the ability of the compounds to inhibition of cell growth in a number of cell lines. Inhibition of cell growth is measured using the Alamar Blue assay (Nociari, M. M, Shalev, A., Benias, P., Russo, C. Journal of Immunological Methods 1998, 213, 157-167). The method is based on the ability of viable cells to reduce resazurin to its fluorescent product resorufin. For each proliferation assay cells are plated onto 96 well plates and allowed to recover for 16 hours prior to the addition of inhibitor compounds for a further 72 hours. At the end of the incubation period 10% (v/v) Alamar Blue is added and incubated for a further 6 hours prior to determination of fluorescent product at […]. In the case of the non-proliferating cell assay cells are maintained at confluence for 96 hour prior to the addition of inhibitor compounds for a further 72 hours. The number of viable cells is determined by Alamar Blue assay as before. All cell lines are obtained from ECACC (European Collection of cell Cultures).

[2] = target: Activated CDK2/CyclinA (Homo sapiens, UniProt P24941); experiment: Activated CDK2/CyclinA kinase inhibitory activity assay (IC50), Example 250A; assay type: biochemical
Method: Compounds of the invention were tested for kinase inhibitory activity using the following protocol.
The reaction is allowed to proceed for 2 to 4 hours before being stopped with an excess of ortho-phosphoric acid (5 μl at 2%).
γ^33P-ATP which remains unincorporated into the histone H1 is separated from phosphorylated histone H1 on a Millipore MAPH filter plate. The wells of the MAPH plate are wetted with 0.5% orthophosphoric acid, and then the results of the reaction are filtered with a Millipore vacuum filtration unit through the wells. Following filtration, the residue is washed twice with 200 μl of 0.5% orthophosphoric acid. Once the filters have dried, 20 μl of Microscint 20 scintillant is added, and then counted on a Packard Topcount for 30 seconds.

Structure (SMILES)	IC50 [1]	IC50 [2]
O=C(NCc1ccccn1)c1n[nH]cc1NC(=O)c1c(F)cccc1F [Example 89]	< 100 µM	–
CC(C)(C)CNC(=O)Nc1c[nH]nc1C(=O)N[C@H]1CC[C@H](O)CC1 [Example 169]	–	< 20 µM
COc1cccc(F)c1C(=O)Nc1c[nH]nc1C(=O)Nc1cccnc1 [Example 222]	< 20 µM	–
CC(C)(C)OC(=O)N1CCCC(CNC(=O)c2n[nH]cc2NC(=O)c2c(F)cccc2F)C1 (stereo not drawn) [Example 97]	< 20 µM	–
O=C(Nc1cccnc1)c1n[nH]cc1NC(=O)c1c(F)cccc1F [Example 223]	< 20 µM	–
CC(C)(C)OC(=O)N1CCC(NC(=O)c2n[nH]cc2NC(=O)c2ccc(F)cc2)CC1 [Example 173]	–	< 20 µM
O=C(NCC1CCOCC1)c1n[nH]cc1NC(=O)c1c(F)cccc1F [Example 67]	< 20 µM	–
O=C(NCC1CCCCC1)c1n[nH]cc1NC(=O)c1c(F)cccc1F [Example 69]	< 20 µM	–
O=C(Nc1ccncc1)c1n[nH]cc1NC(=O)c1c(Cl)cccc1Cl [Example 220]	< 20 µM	–
O=C(N[C@@H]1CCNC1)c1n[nH]cc1NC(=O)c1c(F)cccc1F [Example 185]	–	< 20 µM
CN1CCC(NC(=O)c2n[nH]cc2NC(=O)c2c(F)cc(F)cc2F)CC1 [Example 205]	< 20 µM	–
Cc1[nH]nc(C(=O)Nc2ccc(F)cc2)c1NC(=O)c1c(F)cccc1F [Example 80]	< 20 µM	–
O=C(NC1CCNCC1)c1n[nH]cc1NC(=O)c1c(Cl)cccc1Cl [Example 150]	< 20 µM	–
O=C(NC1CCOCC1)c1n[nH]cc1NC(=O)c1c(F)cccc1F [Example 66]	< 20 µM	–
CCOC(=O)C1CCC(NC(=O)c2n[nH]cc2NC(=O)c2c(F)cccc2F)CC1 (stereo not drawn) [Example 83A, 4-{[4-(2,6-difluoro-benzoylamino)-1H-pyrazole-3-carbonyl]-amino}-cyclohexanecarboxylic acid ethyl ester]	< 20 µM	–
O=C(Nc1c[nH]nc1C(=O)NC1CCNCC1)c1cccc2c1OCCO2 [Example 192]	< 20 µM	–
COC1CCC(NC(=O)c2n[nH]cc2NC(=O)c2c(Cl)cccc2Cl)CC1 (stereo not drawn) [Example 210]	< 20 µM	–
O=C(NC1CCN(CC2CCOC2)CC1)c1n[nH]cc1NC(=O)c1c(Cl)cccc1Cl (stereo not drawn) [Example 219]	< 20 µM	–
O=C(Nc1cccc(CN2CCOCC2)c1)c1n[nH]cc1NC(=O)c1c(F)cccc1F [Example 74]	< 20 µM	–
COc1nc(Cl)cc(C)c1C(=O)Nc1c[nH]nc1C(=O)NC1CCNCC1 [Example 195]	< 20 µM	–

Structure (SMILES)	IC50 [1]	IC50 [2]
Cn1nc(C(C)(C)C)cc1C(=O)Nc1c[nH]nc1C(=O)NCC1CC1 [Example 183]	< 100 µM	–
O=C(NCc1ccccc1F)c1n[nH]cc1NC(=O)c1c(F)cccc1F [Example 92]	< 20 µM	–
O=C(Nc1cccnc1)c1n[nH]cc1NC(=O)c1c(Cl)cccc1Cl [Example 218]	< 20 µM	–
O=C(N[C@H]1CC[C@@H](N2CCOCC2)CC1)c1n[nH]cc1NC(=O)c1c(F)cccc1F [Example 168]	–	< 20 µM
O=C(NCC1CCCNC1)c1n[nH]cc1NC(=O)c1c(F)cccc1F (stereo not drawn) [Example 98]	< 20 µM	–
CN1CCC(NC(=O)Nc2c[nH]nc2C(=O)N[C@H]2CC[C@H](O)CC2)CC1 [Example 171]	–	< 20 µM
O=C(Nc1c[nH]nc1C(=O)Nc1ccc(F)cc1)c1ccco1 [Example 38, 4-[(Furan-2-carbonyl)-amino]-1H-pyrazole-3-carboxylic acid (4-fluoro-phenyl)-amide]	< 100 µM	–
O=C(NCc1ccccc1)c1n[nH]cc1NC(=O)c1c(F)cccc1F [Example 90]	< 20 µM	–
O=C(NC1CCN(Cc2ccccc2)C1)c1n[nH]cc1NC(=O)c1c(F)cccc1F (stereo not drawn) [Example 85]	< 100 µM	–
O=C(Nc1c[nH]nc1C(=O)Nc1ccc(F)cc1)c1ccsc1 [Example 50, 4-[(Thiophene-3-carbonyl)-amino]-1H-pyrazole-3-carboxylic acid (4-fluoro-phenyl)-amide]	< 20 µM	–
CN1CCN(NC(=O)c2n[nH]cc2NC(=O)c2c(Cl)cccc2Cl)CC1 [Example 207]	< 20 µM	–
O=C(Nc1c[nH]nc1C(=O)Nc1ccc(F)cc1)c1ccccc1OCCN1CCCC1 [Example 52, 4-[2-(2-Pyrrolidin-1-yl-ethoxy)-benzoylamino]-1H-pyrazole-3-carboxylic acid 4-fluorophenylamide]	< 20 µM	–
O=C(NCC1CC1)c1n[nH]cc1NC(=O)c1c(F)cccc1F [Example 79]	< 20 µM	–
O=C(NCc1ccccc1Cl)c1n[nH]cc1NC(=O)c1c(F)cccc1F [Example 91]	< 20 µM	–
O=C(Nc1cc(F)ccc1OCCN1CCCC1)c1n[nH]cc1NC(=O)c1c(F)cccc1F [Example 166, 4-(2,6-Difluoro-benzoylamino)-1H-pyrazole-3-carboxylic acid[5-fluoro-2-(2-pyrrolidin-1-yl-ethoxy)-phenyl]-amide]	< 20 µM	–
O=C(Nc1c[nH]nc1C(=O)Nc1ccc(F)cc1)c1ccc(CO)cc1 [Example 44, 4-(4-Hydroxymethyl-benzoylamino)-1H-pyrazole-3-carboxylic acid (4-fluoro-phenyl)-amide]	< 20 µM	–
COc1ccccc1C(=O)Nc1c[nH]nc1C(=O)Nc1ccc(F)cc1 [Example 25, 4-(2-Methoxy-benzoylamino)-1H-pyrazole-3-carboxylic acid (4-fluoro-phenyl)-amide]	< 20 µM	–
O=C(NC1CCCC1)c1n[nH]cc1NC(=O)c1c(F)cccc1F [Example 75]	< 20 µM	–
CC(C)(C)NC(=O)Nc1c[nH]nc1C(=O)NCC1CC1 [Example 184]	–	< 20 µM
O=C(NC1CCC(O)CC1)c1n[nH]cc1NC(=O)c1c(F)cccc1F (stereo not drawn) [Example 95]	< 20 µM	–

Structure (SMILES)	IC50 [1]	IC50 [2]
CN1CCN(c2cc(F)cc(C(=O)Nc3c[nH]nc3C(=O)NC3CCC(C(C)(C)C)CC3)c2)CC1 (stereo not drawn) [Example 214]	< 20 µM	–
CO[C@H]1CC[C@H](NC(=O)c2n[nH]cc2NC(=O)c2c(Cl)cccc2Cl)CC1 [Example 210]	–	< 20 µM
O=C(CCc1ccc(Cl)cc1)Nc1c[nH]nc1C(=O)Nc1ccc(F)cc1 [Example 10, 4-[3-(4-Chloro-phenyl)-propionylamino]-1H-pyrazole-3-carboxylic acid (4-fluoro-phenyl)-amide]	< 20 µM	–
O=C(N[C@H]1CC[C@@H](NC2CCOCC2)CC1)c1n[nH]cc1NC(=O)c1c(F)cccc1F [Example 170]	–	< 20 µM
O=C(Nc1cccc(CO)c1)c1n[nH]cc1NC(=O)c1c(F)cccc1F [Example 73]	< 20 µM	–
O=C(Nc1ccccc1)Nc1c[nH]nc1C(=O)N[C@H]1CC[C@H](O)CC1 [Example 156]	–	< 20 µM
O=C(Nc1c[nH]nc1C(=O)Nc1ccc(F)cc1)c1ccc2ccccc2n1 [Example 49, Quinoline-2-carboxylic acid[3-(4-fluoro-phenylcarbamoyl)-1H-pyrazol-4-yl]-amide]	< 100 µM	–
COc1cccc(OC)c1C(=O)Nc1c[nH]nc1C(=O)Nc1ccc(F)cc1 [Example 60]	< 20 µM	–
O=C(N[C@@H]1CN2CCC1CC2)c1n[nH]cc1NC(=O)c1c(F)cccc1F [Example 216]	< 100 µM	–
COc1cccc(C(=O)Nc2c[nH]nc2C(=O)Nc2ccc(F)cc2)c1F [Example 51, 4-(2-fluoro-3-methoxy-benzoylamino)-1H-pyrazole-3-carboxylic acid (4-fluoro-phenyl)-amide]	< 100 µM	–
O=C(Nc1ccc(F)cc1)c1n[nH]cc1NC(=O)C(F)(F)F [Example 3, 4-(2,2,2-Trifluoro-acetylamino)-1H-pyrazole-3-carboxylic acid (4-fluoro-phenyl)-amide]	< 100 µM	–
CN1CCC(C(=O)Nc2c[nH]nc2C(=O)NCC2CC2)CC1 [Example 181]	–	< 20 µM
CN1CCC(N2CCC(NC(=O)c3n[nH]cc3NC(=O)c3c(F)cccc3F)CC2)CC1 [Example 177]	–	< 20 µM
Cc1ccccc1C(=O)Nc1c[nH]nc1C(=O)Nc1ccc(F)cc1 [Example 46, 4-(2-Methyl-benzoylamino)-1H-pyrazole-3-carboxylic acid (4-fluoro-phenyl)-amide]	< 20 µM	–
O=C(Nc1c[nH]nc1C(=O)Nc1ccc(F)cc1)c1cnc[nH]1 [Example 39, 4-[(3H-Imidazole-4-carbonyl)-amino]-1H-pyrazole-3-carboxylic acid (4-fluoro-phenyl)-amide]	< 100 µM	–
O=C(NC1CCN(C2CCOCC2)CC1)c1n[nH]cc1NC(=O)c1c(F)cccc1F [Example 221]	< 20 µM	–
O=C(Nc1ccc(F)cc1)c1n[nH]cc1NC(=O)C1CCCCC1 [Example 27, 4-(Cyclohexanecarbonyl-amino)-1H-pyrazole-3-carboxylic acid (4-fluoro-phenyl)-amide]	< 20 µM	–
O=C(NC1CCNC1)c1n[nH]cc1NC(=O)c1c(F)cccc1F (stereo not drawn) [Example 185]	< 20 µM	–
O=C(CO)Nc1c[nH]nc1C(=O)Nc1ccc(F)cc1 [Example 29, 4-(2-Hydroxy-acetylamino)-1H-pyrazole-3-carboxylic acid (4-fluoro-phenyl)-amide]	< 100 µM	–
O=C(NC1CCNCC1)c1n[nH]cc1NC(=O)c1cnn2ccccc12 [Example 193]	< 20 µM	–
